No end group written: not given here.
What was measured:
Experiment in all cases: biochemical
Format in all cases: binding
HLA-A*0201 (HLA-A2.1) = HLA-A*0201 (HLA-A2.1) (Homo sapiens, UniProt P04439, D140Y/D185E/D98H/E176V/E277Q/G131W/G231S/I119V/I121R/I166T/I218V/L300P/L318F/N151K/N90K/P208A/P217A/Q86G/Q94H/R138H/R169H/T345S)
A*0202 = A*0202 (Homo sapiens, UniProt P04439, D140Y/D185E/D98H/E176V/E277Q/G131W/G231S/I119L/I121R/I166T/I218V/L180W/L300P/L318F/N151K/N90K/P208A/P217A/Q67R/Q86G/Q94H/R138H/R169H/T345S)
A*0203 = A*0203 (Homo sapiens, UniProt P04439, A173T/D140Y/D185E/D98H/E277Q/G131W/G231S/I119V/I121R/I166T/I218V/L180W/L300P/L318F/N151K/N90K/P208A/P217A/Q86G/Q94H/R138H/R169H/T345S)
A*0206 = A*0206 (Homo sapiens, UniProt P04439, D140Y/D185E/D98H/E176V/E277Q/F33Y/G131W/G231S/I119V/I121R/I166T/I218V/L300P/L318F/N151K/N90K/P208A/P217A/Q86G/Q94H/R138H/R169H/T345S)
A*6802 = A*6802 (Homo sapiens, UniProt P04439, A269V/D140Y/D185E/E176V/E277Q/E87N/F33Y/G231S/I121R/I166T/I218V/L180W/L300P/L318F/N151K/P208A/P217A/Q86R/R138H/R169H/S129P/T345S/V36M)

Sequence	IC50 (HLA-A*0201 (HLA-A2.1)) [nM]	IC50 (A*0202) [nM]	IC50 (A*0203) [nM]	IC50 (A*0206) [nM]	IC50 (A*6802) [nM]
QLSTQELFI [Peptide 9013.0057]	65	4.5	27	7470	8170
QQIEFITFL [Peptide 1578.10]	42	5.9	20	45	93
QQIEFVSFL [Peptide 1578.16]	19	3.3	14	49	44
QQSTQELFV [Peptide 9013.0056]	1590	163	409	593	> 20000
RILQHLLFA [Peptide 1525.24]	160	220	51	11	> 20000
RILQQLLFA [Peptide 1525.14]	123	68	68	20	> 20000
RILQQLLFV [Peptide 1525.09]	28	489	60	18	17900
RILQQLLLI [Peptide 1525.20]	199	4680	1000	82	> 20000
RILQQMLFI [Peptide 1525.22]	187	709	241	108	> 20000
RILQRLLFV [Peptide 1525.27]	64	1590	11	73	> 20000
RLENAILFTA [Peptide 1578.51]	2150	43	1770	4560	> 20000
RLLQQLLFI [Peptide 1525.10]	27	70	46	19	> 20000
RLLTLLSVT [Peptide 9013.0076]	1830	4610	1600	482	> 20000
RLQLSNGNRTL [Peptide 9013.0286]	> 20000	443	2840	> 20000	> 20000
RLQLSNGNRTV [Peptide 9013.0328]	5900	128	57	> 20000	4840
RLTVTTITV [Peptide 9013.0067]	108	22	36	704	13000
RLTVTTITVYA [Peptide 9013.0305]	243	23	205	1100	53
RMLQHLLFI [Peptide 1545.04]	16	10	4	14	> 20000
RMLQQLLFI [Peptide 1525.12]	15	128	12	16	18700
RMLQQLLFV [Peptide 1525.16]	21	21	6.8	14	> 20000
RTLQLLLFV [Peptide 1525.25]	4.7	371	468	11	3210
RTLQQLLFI [Peptide 1525.11]	152	> 20000	1660	89	> 20000
RTLQQLLFV [Peptide 1525.15]	120	1280	190	30	> 20000
RTLTLLSVV [Peptide 9013.0075]	505	6020	300	88	> 20000
RTTVKTITVSV [Peptide 9013.0318]	1590	866	457	137	1.4
RVLQQLLFV [Peptide 1545.05]	10	1010	29	6.4	> 20000

From patent publication US9340577B2, “HLA binding motifs and peptides and their uses” (priority 1992, dated 2016)
